We go through one compound from patent publication US20160108414A1, “GROWTH-RELATED ENOX PROTEINS FROM PLANTS WITH YIELD ENHANCEMENT POTENTIAL, SEQUENCES AND METHODS” (Mor-NuCo Enterprises, Inc., priority 2013, published 2016).

Molecules are shown by their SMILES. Values joined by “and” are separate entries in the source; they are usually repeats but may differ in a detail not shown here. Equal entries are not always repeated.

In one experiment the test system is 375 NR soybeans. Nature of the experiment: TR-III spray, greenhouse soybeans, plant height above cotyledons. The format is in vivo, soybean. Also noted: Plant height above cotyledons: unit not given beside the values. The following applies: for Plant height above cotyledons: single experiments, 10 days after spraying.
The next experiment concerns soybean shoots. Nature of the experiment: Shoot growth of excised soybean shoots in TR-III solutions. The format is in vivo. The following applies: narrow range, FIG. 18. An excerpt:
FIG. 18. As in FIG. 17, except untreated seeds were germinated and excised shoots were transferred to TR-III solutions of different concentrations prepared in water.

Another experiment relates to plasma membrane ENOX1. Nature of the experiment: Plasma membrane ENOX1 activity with added cysteine. The format is biochemical, soybean. The conditions noted are these: for ENOX1: +100 μM cysteine.
Experiment [1] relates to recombinant Arabidopsis ENOX1. Nature of the experiment: NADH oxidase activity of IEF-purified recombinant Arabidopsis ENOX1. The format is biochemical. The following applies: recombinant protein expressed in bacteria, FIG. 14. As to the method: Cells were centrifuged at 5,000 g for 6 min. Pellets were then resuspended in 20 mM Tris-HCl, pH 8.0, containing 0.5 mM PMSF, 1 mM benzamidine and 1 mM 6-aminocaproic and lysed by three passages through a French pressure cell (SLM Aminco) at 20,000 psi. Expression of the recombinant Arabidopsis ENOX1 of about 14 kDa was confirmed by SDS-PAGE with silver staining. Transformed cells were stored at −80° C. in a standard glycerol stock solution. The Arabidopsis ENOX1 proteins were further purified on Criterion IEF gels (Bio-Rad, Hercules, Calif.). The IEF gel was cut into seven equal segments. The pH represented by each slice was based on IEF standards (Bio-Rad). The slices were soaked in 15 mM Tris-Mes buffer, pH 7, at 4° C. for overnight with shaking. The gel-free extracts were assayed for ENOX1 activity.
Oxidation of NADH was determined spectrophotometrically from the disappearance of NADH measured at 340 nm in a reaction mixture containing 25 mM Tris-MES (pH 7.2), 100 μM GSH, 1 mM KCN to inhibit mitochondrial oxidase activity, 150 μM NADH and the enzyme at 37° C. with temperature control (±0.5° C.) and stirring. Prior to assay, 1 μM reduced glutathione was added to reduce the protein in the presence of substrate. After 10 min, 0.03% hydrogen peroxide was added to reoxidize the protein under renaturing conditions and in the presence of substrate to start the reaction. Activities were measured using paired Hitachi U3210 or paired SLM Aminco 2000 spectrophotometers both with continuous recording. Assays were run for 1 min and were repeated on the same sample at intervals of 1.5 min for the times indicated. An extinction coefficient of 6.22 cm^−1 mM^−1 was used to determine specific activity.
IEF purified ENOX1 was concentrated to 0.7 mg/ml by using a Centricon concentrator (Millipore Corporation, Danvers, Mass.) fitted with a 10,000 nominal molecular weight limit ultracel YM membrane. Samples (50 μl) were combined with 1 μl of trifluoroacetic acid (TFA) in the presence or absence of 15 μl 10 mM bathocuproine. After 2 h of incubation at room temperature, the samples were dialyzed (Spectra/Pro Dialysis membrane, molecular weight cut-off 6-8,000, Spectrum Laboratories (Rancho Dominguez, Calif.) against 20 mM Tris-HCl, pH 8, at 4° C. overnight.

A further experiment concerns soybeans. Nature of the experiment: Soybean field experiment with TR-III foliar spray, standability. The conditions noted are these: 0.01 lb/A foliar spray; No TR-III plants severely lodged. Type of experiment: in vivo. An excerpt:
FIG. 21. Pods per plant of soybeans in a field experiment comparing no TR-III (solid symbols) with 0.01 lb/A TR-III (open symbols, dashed lines) as a foliar spray applied July 3. FIG. 23. Standability of soybeans from the field experiment of FIG. 21. No TR-III plants (left) were severely lodged.

The test system of another experiment is soybean plants. Nature of the experiment: TR-III spray, greenhouse soybeans from untreated seed, epicotyl enlargement. The format is in vivo. An excerpt:
FIG. 20. As in FIG. 19, except plants were from untreated seed and sprayed with different rates of TR-III.

Turning to `N[C@@H](CS)C(=O)O` [TR-III, cysteine], the “Plant height above cotyledons, Ave + MAD” value in the experiment on 375 NR soybeans (spray 0.001 lb/A, 0 lb/A: 13.6 ± 0.3) is 14.7 ± 0.1; in the experiment with 375 NR soybeans (spray 0.01 lb/A), 14.4 ± 0.1; in the experiment on 375 NR soybeans (spray 0.1 lb/A), 15.2 ± 0.7. In addition, the “Plant height above cotyledons” value in the experiment on 375 NR soybeans (spray 0.001 lb/A, 0 lb/A: 13.3, 13.9) is 14.8 and 14.6; with 375 NR soybeans (spray 0.01 lb/A), 14.3 and 14.5; in the experiment on 375 NR soybeans (spray 0.1 lb/A), 14.4 and 15.9. In addition, the “concentration range stimulating shoot growth” value with soybean shoots is given as “around 10^−7 M”. Also, in the experiment on plasma membrane ENOX1 (100 μM, both ST-109-2-4 and Williams 82), the “response of plasma membrane ENOX1 activity to added cysteine” value is listed as “about 12%”. For the same compound, the ENOX1 amounted to 0.072 ± 0.003 μmoles/min/mg protein in the experiment on plasma membrane ENOX1 (plasma membranes of Williams 82 ISU, −cysteine 0.060 ± 0.003) and 0.123 ± 0.005 μmoles/min/mg protein in the experiment with plasma membrane ENOX1 (plasma membranes of transgenic ST-109-2-4, −cysteine 0.110 ± 0.004). Besides, the “Stimulation of NADH oxidation” value in experiment [1] was “specific for maximum (3)”. Also, the “Standability (lodging)” value in the experiment on soybeans was “did not lodge”. The Epicotyl enlargement entry is given as “little or no effect” in the experiment on soybean plants (spray 0.001 or 0.1 lb/A) and “Epicotyl enlargement was observed” in the experiment with soybean plants (spray 0.01 lb/A).
